Experimental data: ChEMBL document CHEMBL1811792, “Ligand-based modelling followed by synthetic exploration unveil novel glycogen phosphorylase inhibitory leads” (Bioorg Med Chem, 2011)

Assays:
[1] = target: T1, Glycogen phosphorylase, muscle form (Oryctolagus cuniculus) (UniProt P00489); assay: Inhibition of rabbit muscle glycogen phosphorylase […] assessed as release of phosphate from glucose-1- phosphate at 10 uM after 20 mins
T1 sequence (whole entry): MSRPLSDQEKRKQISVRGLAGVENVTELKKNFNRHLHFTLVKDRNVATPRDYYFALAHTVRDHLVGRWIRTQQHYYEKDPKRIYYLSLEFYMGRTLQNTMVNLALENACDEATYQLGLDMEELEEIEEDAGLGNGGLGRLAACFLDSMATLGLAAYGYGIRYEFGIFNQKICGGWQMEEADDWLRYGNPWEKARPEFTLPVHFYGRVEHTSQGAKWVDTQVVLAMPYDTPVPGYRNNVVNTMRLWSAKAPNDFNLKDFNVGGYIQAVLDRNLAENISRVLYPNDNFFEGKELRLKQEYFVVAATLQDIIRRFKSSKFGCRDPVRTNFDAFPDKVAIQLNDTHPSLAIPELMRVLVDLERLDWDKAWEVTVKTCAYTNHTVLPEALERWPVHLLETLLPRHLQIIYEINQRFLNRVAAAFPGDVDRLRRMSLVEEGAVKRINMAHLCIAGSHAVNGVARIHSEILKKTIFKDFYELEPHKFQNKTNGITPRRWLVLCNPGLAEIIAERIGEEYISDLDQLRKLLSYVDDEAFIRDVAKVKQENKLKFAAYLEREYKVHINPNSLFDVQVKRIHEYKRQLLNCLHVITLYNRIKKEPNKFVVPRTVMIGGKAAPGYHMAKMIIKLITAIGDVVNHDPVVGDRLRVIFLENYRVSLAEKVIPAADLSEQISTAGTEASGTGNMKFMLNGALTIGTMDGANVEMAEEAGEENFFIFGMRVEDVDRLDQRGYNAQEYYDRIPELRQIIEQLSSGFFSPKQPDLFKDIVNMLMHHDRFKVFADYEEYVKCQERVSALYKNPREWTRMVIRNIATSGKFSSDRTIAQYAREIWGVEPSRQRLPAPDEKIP

[2] = target: T2, Glycogen phosphorylase, muscle form (Oryctolagus cuniculus, UniProt P00489); assay: Inhibition of rabbit muscle glycogen phosphorylase […] assessed as release of phosphate from glucose-1- phosphate after 20 mins
T2 sequence (P00489 whole entry): T1 sequence (whole entry)

inhibition [1] [%] | IC50 [2] [µM] | Compound
26 |  | O=C1Oc2ccccc2N/C1=C/C(=O)c1ccc(Cl)cc1
12 |  | COC(=O)c1ccccc1NC(=O)Nc1cccc(OC)c1
55 | 5.4 | Cc1ccccc1NC(=O)C(=O)Nc1ccccc1C
36 |  | CSc1cccc(NC(=O)Nc2ccccc2C(N)=O)c1
34 |  | CCOC(=O)C(=O)CC(=O)c1ccc(OC)cc1
4 |  | Cc1cccc(NC(=O)CC(=O)Nc2cccc(C)c2)c1
17 |  | CSc1ccc(NC(=O)C2CCCCC2C(=O)O)cc1 (stereo unspecified)
45 | 6.9 | Cc1cc(S(=O)(=O)Nc2nc3ccccc3[nH]2)c(S)cc1Cl
17 |  | CSc1ccc(NC(=O)Nc2ccccc2C(N)=O)cc1
7 |  | COC(=O)c1ccccc1NC(=O)Nc1ccc(SC)cc1
24 |  | COc1ccc2cc(-c3ccc(OC)c(OC)c3)c(=O)oc2c1
25 |  | CN(C)c1ccc(/C=C/C(=O)c2cc(Cl)ccc2O)cc1
5 |  | COc1ccccc1NC(=O)C(=O)Nc1ccccn1
42 | 7.5 | Cc1cc(S(=O)(=O)Nc2nnc3c4ccccc4ccn23)c(S)cc1Cl
53 | 5.9 | Cc1cc(S(=O)(=O)Nc2nnc3c(C(F)(F)F)cc(Cl)cn23)c(S)cc1Cl
38 |  | NC(=O)c1ccccc1NC(=O)COc1ccc(Cl)cc1
1 |  | O=C(CC(=O)NCc1ccccc1)NCc1ccccc1
2 |  | Cc1ccccc1NC(=O)CC(=O)Nc1ccccc1C
8 |  | C/C=C/c1cc(OC)c2c(c1)[C@H](C)[C@@H](c1ccc(O)c(OC)c1)O2
22 |  | CCOc1ccc(NC(=O)c2cc3ccccc3cc2O)cc1
49 | 16.5 | Cc1ccc(S(=O)(=O)CC2CCc3ccccc3C2=O)cc1 (stereo unspecified)
